From patent publication US20250186442A1, “Obicetrapib and Ezetimibe Combination Treatment and Fixed Dose Pharmaceutical Compositions” (NewAmsterdam Pharma B.V., priority 2022, published 2025)

How the values were obtained:
[1] = Kinetic solubility in FaSSIF (pH 6.5) at 37° C.; assay type: physicochemical; details: FaSSIF pH 6.5, 37° C., as obicetrapib free acid
From the text: (§1) The amorphous form has a higher kinetic solubility and dissolution rate than the crystalline form (and by extension obicetrapib itself). Both crystalline and amorphous obicetrapib hemicalcium kinetic solubility determinations were made in biorelevant media at different pHs, namely at about 5.0 (FeSSIF conditions) and at pH of about 6.5 (FaSSIF) conditions as set forth in Example 11.28.
The concentrations in Table X are those of obicetrapib (i.e., the free acid).
(§2) The solids were magnetically stirred at 600 RPM in a shaker bath and samples were drawn with a 1.0 ml syringe at T=15 mins, 30 mins, 60 mins, 90 mins and 120 mins. The solubility was measured using HPLC method provided by the client. The compound was added to 4.0 ml glass vials at approximately 20.0 mg/ml. Samples were agitated with a vortex mixer for about 5 minutes to ensure the presence of undissolved excess powder. The sample collected at each time point was centrifuged at 1200 RPM, filtered with 0.45 μm Polytetrafluoroethylene (PTFE) filters and diluted with methanol before HPLC analysis. In order to minimize the effect of potential analyte adsorption on the filter, the initial 0.5 mL of supernatant passing through the filter was discarded prior to collecting sample for HPLC analysis.

[2] = Kinetic solubility in FeSSIF (pH 5.0) at 37° C.; assay type: physicochemical; details: FeSSIF pH 5.0, 37° C., as obicetrapib free acid
From the text: as §1
The concentrations in Table W are those of obicetrapib (i.e., the free acid).
as §2

[3] = ROSE2 phase 2b clinical trial - safety and tolerability (adverse events); assay type: in vivo, human; details: Safety Population
Protocol: (§3) The exploratory objectives of this study include the following: • To evaluate the effect of obicetrapib 10 mg+ezetimibe 10 mg combination therapy and obicetrapib 10 mg monotherapy, when used as an adjunct to high-intensity statin therapy, on non-high-density lipoprotein cholesterol (non-HDL-C), very low-density lipoprotein cholesterol (VLDL-C), HDL-C, TG, ApoE, Lp(a), and HDL-ApoE at Day 84; • To evaluate the effect of obicetrapib 10 mg+ezetimibe 10 mg combination therapy and obicetrapib 10 mg monotherapy, when used as an adjunct to high-intensity statin therapy, on the proportion of participants achieving predefined LDL-C targets at Day 84; • To assess the mean trough plasma levels of obicetrapib 10 mg+ezetimibe 10 mg combination therapy and obicetrapib 10 mg monotherapy at steady state on Days 28, 84, and 112; and • To evaluate the safety and tolerability profiles of obicetrapib 10 mg+ezetimibe 10 mg combination therapy and obicetrapib 10 mg monotherapy, when used as an adjunct to high-intensity statin therapy, assessed by clinical laboratory values and incidence of AEs.
The safety and tolerability profile of obicetrapib 10 mg, both in combination with ezetimibe 10 mg and as monotherapy, will be assessed by clinical laboratory assessments (chemistry and hematology), vital signs, physical examinations, and the incidence of AEs.
An AE can therefore be any unfavorable and/or unintended sign (including an abnormal laboratory finding), symptom, or disease temporally associated with the use of an investigational medicinal product, whether or not related to the investigational medicinal product. All AEs, including observed or volunteered problems, complaints, or symptoms, are to be recorded on the appropriate eCRF.
AEs, which include clinical laboratory assessment variables, will be monitored and documented from the time of first dose of study treatment until completion of Visit 5. Participants should be instructed to report any AE that they experience to the Investigator, whether or not they think the event is due to study drug. Beginning at the date of the first dose of study treatment, Investigators should make an assessment for AEs at each visit and record the event on the appropriate AE eCRF.
The Investigator will assess the severity (intensity) of each AE as mild, moderate, or severe, and will also categorize each AE as to its potential relationship to study drug using the categories of yes or no.
• Mild—An event that is easily tolerated and generally not interfering with normal daily activities. • Moderate—An event that is sufficiently discomforting to interfere with normal daily activities. • Severe—An event that is incapacitating with inability to work or perform normal daily activities.
An AE or adverse reaction is considered serious if, in the view of either the Investigator or Sponsor, it results in any of the following outcomes: • Death; • A life-threatening AE;
The Safety Population will include all participants who receive at least 1 dose of any study drug. Treatment classification will be based on the actual treatment received. The Safety Population will be the primary population used for the safety analyses.

Lp(a) = test: ROSE2 phase 2b clinical trial - Lp(a); assay type: in vivo, human; details: Exploratory Population
Protocol: as §3
This study will be a placebo-controlled, double-blind, randomized, Phase 2 study to evaluate the efficacy, safety, and tolerability of obicetrapib 10 mg, both in combination with ezetimibe 10 mg and as monotherapy, as an adjunct to high-intensity statin therapy. This study will take place at approximately 20 sites in the United States.
Up to 2 weeks after the Screening Visit, participants will return to the site on Day 1 (Visit 2) and confirm study eligibility before being randomized and beginning treatment. Approximately 114 eligible participants (38 participants per treatment group) will be randomized in a 1:1:1 ratio to 1 of the following treatment groups: • Combination therapy: Obicetrapib 10 mg+ezetimibe 10 mg (administered as one 10 mg obicetrapib tablet and one 10 mg ezetimibe capsule); • Obicetrapib monotherapy: Obicetrapib 10 mg (administered as one 10 mg obicetrapib tablet and 1 placebo capsule); or • Placebo (administered as 1 placebo tablet and 1 placebo capsule).
The exploratory efficacy endpoints include the following: • Percent change from Day 1 to Day 84 in non-HDL-C, VLDL-C, HDL-C, TG, ApoE, Lp(a), and HDL-ApoE for the obicetrapib 10 mg+ezetimibe 10 mg combination treatment group compared with the placebo group and for the obicetrapib 10 mg monotherapy treatment group compared with the placebo group; and • Proportion of participants at Day 84 that achieve LDL-C<2.6 mmol/L (<100 mg/dL), LDL-C<1.8 mmol/L (<70 mg/dL), and LDL-C<1.3 mmol/L (<50 mg/dL) for the obicetrapib 10 mg+ezetimibe 10 mg combination treatment group compared with the placebo group and for the obicetrapib 10 mg monotherapy treatment group compared with the placebo group.
Blood samples for the lipid profile must be obtained under fasting conditions (ie, after the participant has fasted for approximately 10 hours). For the purposes of this study, fasting will be defined as nothing by mouth except water and any essential medications. If a participant is not fasting, the Investigator should reschedule the visit as soon as possible. LDL-C level will be calculated using the Friedewald equation unless TG≥400 mg/dL or LDL-C≤50 mg/dL; in both cases, LDL-C level will be measured directly by preparative ultracentrifugation, also referred to as beta quantification. Additionally, LDL-C will be measured by preparative ultracentrifugation, also referred to as beta quantification, at baseline (Visit 2) and at the end of the 12-week Treatment Period (Visit 4) for all participants.
The Modified ITT (mITT) Population will include all participants in the ITT Population who receive at least 1 dose of any study drug and have a baseline value for the LDL-C assessment. […]

In the case of CCOC(=O)N1c2ccc(C(F)(F)F)cc2[C@@H](N(Cc2cc(C(F)(F)F)cc(C(F)(F)F)c2)c2ncc(OCCCC(=O)[O-])cn2)C[C@H]1CC.CCOC(=O)N1c2ccc(C(F)(F)F)cc2[C@@H](N(Cc2cc(C(F)(F)F)cc(C(F)(F)F)c2)c2ncc(OCCCC(=O)[O-])cn2)C[C@H]1CC.[Ca+2] [Amorphous obicetrapib hemicalcium Batch #1], the “Concentration in Solution” value ([1]; 15 mins) is reported as 60 µg/mL, the “Concentration in Solution” value ([1]; 30 mins) is reported as 99 µg/mL and the “Concentration in Solution” value ([1]; 60 mins) is reported as 163 µg/mL. For the same compound, the “Concentration in Solution” value ([1]; 90 mins) was 201 µg/mL, the “Concentration in Solution” value ([1]; 120 mins) was 244 µg/mL and the “Concentration in Solution” value ([2]; 15 mins) was 520 µg/mL. For the same compound, the “Concentration in Solution” value ([2]; 30 mins) was 661 µg/mL, the “Concentration in Solution” value ([2]; 60 mins) was 675 µg/mL and the “Concentration in Solution” value ([2]; 90 mins) was 696 µg/mL. The “Concentration in Solution” value ([2]; 120 mins) was 675 µg/mL.

For CCOC(=O)N1c2ccc(C(F)(F)F)cc2[C@@H](N(Cc2cc(C(F)(F)F)cc(C(F)(F)F)c2)c2ncc(OCCCC(=O)[O-])cn2)C[C@H]1CC.CCOC(=O)N1c2ccc(C(F)(F)F)cc2[C@@H](N(Cc2cc(C(F)(F)F)cc(C(F)(F)F)c2)c2ncc(OCCCC(=O)[O-])cn2)C[C@H]1CC.[Ca+2] [Amorphous obicetrapib hemicalcium Batch #2], the “Concentration in Solution” value ([1]; 15 mins) was 90 µg/mL, the “Concentration in Solution” value ([1]; 30 mins) was 140 µg/mL and the “Concentration in Solution” value ([1]; 60 mins) was 229 µg/mL. For the same compound, the “Concentration in Solution” value ([1]; 90 mins) was 293 µg/mL, the “Concentration in Solution” value ([1]; 120 mins) was 387 µg/mL and the “Concentration in Solution” value ([2]; 15 mins) was 502 µg/mL. The “Concentration in Solution” value ([2]; 30 mins) was 618 µg/mL, the “Concentration in Solution” value ([2]; 60 mins) was 628 µg/mL and the “Concentration in Solution” value ([2]; 90 mins) was 658 µg/mL. The “Concentration in Solution” value ([2]; 120 mins) was 642 µg/mL.

With CCOC(=O)N1c2ccc(C(F)(F)F)cc2[C@@H](N(Cc2cc(C(F)(F)F)cc(C(F)(F)F)c2)c2ncc(OCCCC(=O)O)cn2)C[C@H]1CC [Obicetrapib 10 mg] the “Any TEAEs by maximum severity: Mild, (%)” value ([3]; (%)) was “(20.5) %”, the “Any TEAEs by maximum severity: Moderate, (%)” value ([3]; (%)) was “(7.7) %” and the “Any TEAEs by maximum severity: Severe, (%)” value ([3]; (%)) was “(10.3) %”. The “Any TEAEs leading to death, (%)” value ([3]; (%)) was “(0.0) %”, the “Any serious TEAEs (TESAEs), (%)” value ([3]; (%)) was “(5.1) %” and the “Any study drug-related TEAEs by maximum severity: Mild, (%)” value ([3]; (%)) was “(10.3) %”. The “Any study drug-related TEAEs by maximum severity: Moderate, (%)” value ([3]; (%)) was “(5.1) %”, the “Any study drug-related TEAEs by maximum severity: Severe, (%)” value ([3]; (%)) was “(5.1) %” and the “Any study drug-related TEAEs leading to discontinuation of study drug, (%)” value ([3]; (%)) was “(5.1) %”. For the same compound, the “Any study drug-related TEAEs, (%)” value ([3]; (%)) was “(2.6) %”, the “Any study drug-related TESAEs, (%)” value ([3]; (%)) was “(2.6) %” and the “Any treatment-emergent AEs (TEAEs), (%)” value ([3]; (%)) was “(20.5) %”. For the same compound, the “Any TEAEs leading to discontinuation of study drug, (%)” value ([3]; (%), first line with this label (r25)) was “(0.0) %”, the “Any TEAEs leading to discontinuation of study drug, (%)” value ([3]; (%), last line of the table (r40)) was “(0.0) %” and the “Any TEAEs by maximum severity: Mild, e” value ([3]; column e) was 20. The “Any TEAEs leading to death, e” value ([3]; column e) was 0, the “Any serious TEAEs (TESAEs), e” value ([3]; column e) was 2 and the “Any study drug-related TEAEs by maximum severity: Mild, e” value ([3]; column e) was 4. For the same compound, the “Any study drug-related TEAEs leading to discontinuation of study drug, e” value ([3]; column e) was 5, the “Any study drug-related TESAEs, e” value ([3]; column e) was 1 and the “Any treatment-emergent AEs (TEAEs), e” value ([3]; column e) was 20. The “Any TEAEs leading to discontinuation of study drug, e” value ([3]; column e, last line of the table (r40)) was 0, the “Lp(a) Day 84, Mean” value (Lp(a); Day 84) was 74.75 nmol/L and the “Lp(a) Day 84, Median” value (Lp(a); Day 84) was 20.85 nmol/L. The “Lp(a) Day 84 Maximum” value (Lp(a); Day 84) was 327.7 nmol/L, the “Lp(a) Day 84 Minimum” value (Lp(a); Day 84) was 2.8 nmol/L and the “Lp(a) Change from Baseline to Day 84, Mean” value (Lp(a)) was -27.66 nmol/L. The “Lp(a) Change from Baseline to Day 84, Median” value (Lp(a)) was -10.95 nmol/L, the “Lp(a) Change from Baseline to Day 84 Maximum” value (Lp(a)) was 3.0 nmol/L and the “Lp(a) Change from Baseline to Day 84 Minimum” value (Lp(a)) was -148.8 nmol/L. For the same compound, the “Lp(a) Percent Change from Baseline to Day 84 (%) Maximum” value (Lp(a)) was 103.4%, the “Lp(a) Percent Change from Baseline to Day 84 (%) Minimum” value (Lp(a)) was −84.6% and the “Lp(a) Percent Change from Baseline to Day 84 (%), Mean” value (Lp(a)) was −24.44%. The “Lp(a) Percent Change from Baseline to Day 84 (%), Median” value (Lp(a)) was −22.75%.
